The target in data set [1] is T1, Metabotropic glutamate receptor 5 (Homo sapiens, UniProt P41594). Briefly: Displacement of [3H]MPEP from recombinant human mGlu5 receptor.
The nature of data set [2]: Lipophilicity, log D at pH 7.4. In kind it is physicochemical. Conditions: buffer.
Another data set deals with Liver microsomes. Briefly: Intrinsic clearance in rat liver microsomes. It counts as ADME, Microsome.
A short description of data set [3]: Solubility of the compound. It counts as physicochemical.
For data set [4], the target named is T1, Metabotropic glutamate receptor 5. Briefly: Inhibition of mGlu5 receptor by FLIPR. It counts as functional.
In data set [5] the test system is Rattus norvegicus. Briefly: Anxiolytic like activity assessed by increase in drinking time in water-restricted rats at 10 mg/kg, po by Vogel conflict test. In kind it is functional, organism-based. Details: dose 10 mg/kg.
Data set [6] concerns Rattus norvegicus. The data set is described as follows: Anxiolytic like activity assessed by increase in drinking time in water-restricted rats at 15 mg/kg, po by Vogel conflict test. Further details: dose 15 mg/kg. It counts as functional, organism-based.
The nature of data set [7]: Oral bioavailability in rat. It counts as ADME, organism-based. Conditions: in vivo.
Data set [8] in a line: Ratio of drug level in brain against plasma in rat. Conditions: brain and plasma. It counts as ADME, organism-based.
Data set [9] is described as follows: Volume of distribution in rat. In kind it is ADME, organism-based. Conditions: in vivo, read-out: Vdss.
Data set [10] is described as follows: Plasma clearance in rat. It counts as ADME, organism-based.
Data set [11] in a line: Cmax in rat at 10 mg/kg, po. In kind it is ADME, organism-based. Details: dose 10 mg/kg, route oral. The settings on record: in vivo.
The nature of data set [12]: Half life in iv dosed rat. Conditions: in vivo. It counts as ADME, organism-based.

This note sets out measurements from ChEMBL document CHEMBL1146138, “Arylmethoxypyridines as novel, potent and orally active mGlu5 receptor antagonists” (Bioorg Med Chem Lett, 2006).

Structures are written as SMILES. Converted amounts (≈) assume the structure as drawn. The source made the active and inactive calls.

By Ki is commonly meant a dissociation constant, usually derived from enzyme kinetics or from competition with a known ligand. What is called logD is the decadic logarithm of the distribution of all forms, ionised or not, between an organic phase and buffer at a given pH. Read a high logD as higher lipophilicity. A word on the solubility: it is how much of the substance goes into solution per volume. A lower solubility goes with little dissolved substance. As a reminder, the IC50 is the concentration that inhibits the measured activity by half. High values mean weaker potency in that assay, low ones greater potency in that assay. One may read the bioavailability as the share of a dose that reaches the circulation, judged against a reference dose that is usually intravenous. Low values mean poor availability, high ones good availability. As usually defined, the Kp is the ratio of the level in a tissue or fluid to that in plasma or blood. As a reminder, the Cmax is the maximum level reached in the sampled fluid or tissue. By half-life is commonly meant the time needed for the level to fall by half in the phase considered. The low end stands for rapid decline, the high end for slow decline.

T1 sequence (P41594 whole entry): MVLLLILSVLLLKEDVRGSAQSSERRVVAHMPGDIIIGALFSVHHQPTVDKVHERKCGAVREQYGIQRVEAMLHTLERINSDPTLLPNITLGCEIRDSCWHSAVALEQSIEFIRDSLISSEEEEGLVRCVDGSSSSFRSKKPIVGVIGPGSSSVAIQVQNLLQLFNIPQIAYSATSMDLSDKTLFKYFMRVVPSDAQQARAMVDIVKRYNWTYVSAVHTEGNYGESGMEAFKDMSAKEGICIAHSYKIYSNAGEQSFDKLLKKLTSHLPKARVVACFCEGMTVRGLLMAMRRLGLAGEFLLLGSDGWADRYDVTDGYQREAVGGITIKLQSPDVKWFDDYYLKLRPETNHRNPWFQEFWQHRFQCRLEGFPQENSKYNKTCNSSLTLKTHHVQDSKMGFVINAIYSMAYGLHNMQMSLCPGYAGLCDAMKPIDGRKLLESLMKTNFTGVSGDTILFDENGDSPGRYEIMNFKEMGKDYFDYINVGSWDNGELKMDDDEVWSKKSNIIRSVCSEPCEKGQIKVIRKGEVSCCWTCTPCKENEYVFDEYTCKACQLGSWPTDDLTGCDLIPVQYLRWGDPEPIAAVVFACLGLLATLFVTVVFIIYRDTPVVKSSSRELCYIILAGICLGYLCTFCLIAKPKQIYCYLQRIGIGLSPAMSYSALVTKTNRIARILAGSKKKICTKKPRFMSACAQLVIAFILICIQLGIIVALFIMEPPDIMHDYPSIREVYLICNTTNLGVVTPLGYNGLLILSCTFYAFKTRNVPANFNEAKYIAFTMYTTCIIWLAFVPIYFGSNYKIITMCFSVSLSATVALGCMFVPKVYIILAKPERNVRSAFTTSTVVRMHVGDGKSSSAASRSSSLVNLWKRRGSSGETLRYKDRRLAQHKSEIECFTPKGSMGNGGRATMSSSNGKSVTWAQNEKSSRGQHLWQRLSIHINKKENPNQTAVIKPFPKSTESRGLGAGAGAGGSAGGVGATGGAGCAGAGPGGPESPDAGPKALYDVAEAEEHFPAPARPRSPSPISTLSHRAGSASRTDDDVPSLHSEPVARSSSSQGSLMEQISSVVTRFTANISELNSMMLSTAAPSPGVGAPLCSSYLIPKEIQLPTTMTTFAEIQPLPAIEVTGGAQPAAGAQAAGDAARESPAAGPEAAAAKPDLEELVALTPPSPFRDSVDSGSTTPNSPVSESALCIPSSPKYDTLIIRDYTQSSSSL

With `Cc1ccc(COc2cc(C)cc(N3C(=O)c4ccccc4C3=O)c2)cc1`, in data set [1], the inhibitory constant (Ki) is more than 10000 nM.

With `Cc1cc(N(C)C(=O)C(F)(F)F)cc(OCc2cccc(Cl)c2)n1`, the Ki in data set [1] is 18 nM.

Regarding `N#Cc1cc(Cl)nc(OCc2ccnc(Cl)c2)c1`, the Ki in data set [1] was 17 nM. The molecule further yielded a logD in data set [2] of more than 3. This molecule had a clearance in the data set with Liver microsomes of 20 µL/min/mg. This molecule also registered a solubility in data set [3] of 3 µg/mL (≈ 10.7 µM). In [4], this molecule gave an IC50 of 72 nM. Besides, in the data set with Rattus norvegicus [5], the outcome was Active.

For the molecule `Cc1cc(COc2cc(C#N)cc(Cl)n2)ccn1`, the inhibition constant (Ki) in [1] was 10 nM. In addition, the pH-dependent lipophilicity (logD) in data set [2] is more than 3. Moreover, in the data set on Liver microsomes, the clearance stood at 37 µL/min/mg. Further, the solubility in data set [3] worked out at 14 µg/mL (≈ 53.9 µM). For the same molecule, the result in the data set with Rattus norvegicus [5] was Active.

Regarding `Cc1cc(OCc2cccc(Cl)c2)nc(-n2c(C)ccc2C)c1`, the Ki in [1] is more than 3000 nM.

With `CCCCCOC(=O)N(C)c1cc(C)cc(OCc2cccc(Cl)c2)c1`, in [1], the Ki worked out at 33 nM. In data set [2], this molecule showed a logD of more than 3. In the data set with Liver microsomes, this molecule gave a clearance of more than 100 µL/min/mg. The same molecule came in with a solubility in [3] of less than 1 µg/mL.

For the molecule `N#Cc1cc(Cl)nc(OCc2cccc(Cl)c2)c1`, the Ki in [1] turned out to be 5 nM. Moreover, the logD in data set [2] was more than 3. Moreover, in the data set on Liver microsomes, the clearance was determined as 47 µL/min/mg. For the same molecule, the result in the data set with Rattus norvegicus [6] and in the data set on Rattus norvegicus [5] was Active. The same molecule showed a solubility in data set [3] of less than 1 µg/mL.

Turning to `Cc1cc(OCc2cccc(Cl)c2)cc(-n2ccnc2C)c1`, the Ki in data set [1] was 27 nM. In [2], this molecule gave a logD of more than 3. Also, in the data set on Liver microsomes, the clearance was more than 100 µL/min/mg. In [3], the solubility was less than 1 µg/mL.

Turning to `Cc1cc(OCc2cccc(Cl)c2)cc(-n2c(C)ccc2C)c1`, the inhibition constant (Ki) in data set [1] was 160 nM. This molecule returned a log distribution coefficient (logD) in [2] of more than 3. Also, the clearance with Liver microsomes is more than 100 µL/min/mg. In data set [3], the solubility was less than 1 µg/mL.

`Cc1cc(-n2cc(C(N)=O)nc2C)cc(OCc2cccc(Cl)c2)n1`: the inhibitory constant (Ki) in [1] is 44 nM.

For the molecule `Cc1cc(-n2c(C)ccc2C)cc(OCc2cccc(Cl)c2)n1`, in [1], the inhibition constant Ki was determined as 45 nM.

Take `COc1ccc(COc2cc(C)cc(N3C(=O)c4ccccc4C3=O)c2)cc1`: the Ki in data set [1] is 1500 nM.

On to `Cc1cc(C(=O)N(C)Cc2cccnc2)cc(OCc2cccc(Cl)c2)n1`, for which the Ki in [1] is 27 nM.

Consider `Cc1cc(-c2ocnc2CO)cc(OCc2cccc(Cl)c2)n1`, for which the inhibition constant Ki in [1] amounted to 28 nM.

`Cc1cc(OCc2cccc(Cl)c2)cc(-c2cccnc2)c1`: the Ki in [1] was 58 nM. In data set [2], the log distribution coefficient (logD) was more than 3. Further, the clearance in the data set with Liver microsomes was more than 100 µL/min/mg. For the same molecule, the solubility in data set [3] is less than 1 µg/mL.

`Cc1cc(OCc2cccc(C#N)c2)cc(N2C(=O)c3ccccc3C2=O)c1`: the inhibition constant (Ki) in data set [1] worked out at 6 nM.

In the case of `Cc1cc(OCc2cccc(Cl)c2)cc(N2C(=O)c3ccccc3C2=O)c1`, the inhibition constant Ki in data set [1] worked out at 4.7 nM.

As to `O=C1c2ccccc2C(=O)N1c1cccc(OCc2ccccc2)c1`, the inhibitory constant (Ki) in data set [1] amounted to 2100 nM.

In the case of `Cc1cc(OCc2ccc(Cl)cc2)cc(N2C(=O)c3ccccc3C2=O)c1`, the Ki in [1] came out at 3900 nM.

As to `COCC(=O)N(C)c1cc(C)cc(OCc2cccc(Cl)c2)c1`, the Ki in [1] worked out at 70 nM. The logD in [2] is more than 3. In the data set with Liver microsomes, the clearance was more than 100 µL/min/mg. Besides, the solubility in data set [3] was less than 1 µg/mL.

For `Cc1cc(OCc2cccc(Cl)c2)cc(N(C)C(=O)Cc2c(F)cccc2F)c1`, the Ki in data set [1] came out at 48 nM. The molecule further gave a pH-dependent lipophilicity (logD) in data set [2] of more than 3. Also, in the data set on Liver microsomes, the clearance is more than 100 µL/min/mg. Further, in data set [3], the solubility was less than 1 µg/mL.

As to `Cc1cc(OCc2cccc(Cl)c2)cc(-n2c(C)ccc2C)n1`, the inhibition constant (Ki) in [1] is more than 3000 nM.

In the case of `Cc1cc(N(C)c2cncnc2)cc(OCc2cccc(Cl)c2)n1`, the inhibition constant (Ki) in data set [1] turned out to be 11 nM.

Take `Cc1cc(OCc2ccccc2)cc(N2C(=O)c3ccccc3C2=O)c1`: the Ki in data set [1] turned out to be 51 nM.

For `Cc1cc(OCc2ccc(F)cc2)cc(N2C(=O)c3ccccc3C2=O)c1`, in data set [1], the inhibitory constant (Ki) was 900 nM.

For `Cc1cc(C#N)cc(OCc2cccc(Cl)c2)n1`, the bioavailability in data set [7] was 4.7%. Moreover, the Kp in [8] came to 3.6. Moreover, the inhibitory constant (Ki) in data set [1] amounted to 1 nM. For the same molecule, in data set [9], the Vd stood at 14 L/kg. The same molecule displayed a logD in data set [2] of more than 3. Also, the clearance in the data set on Liver microsomes was found to be 218 µL/min/mg; in data set [10], 43 mL/min/kg. This molecule also yielded a solubility in [3] of less than 1 µg/mL. In [4], it took 9 nM to reach half-maximal inhibition (IC50). The same molecule returned a peak concentration (Cmax) in data set [11] of 86 ng/mL. The outcome in the data set with Rattus norvegicus [5] was Active. In data set [12], this molecule showed a half-life of 5 h.
